Measured values from publication PMC10268404, “Insight into broad substrate specificity and synergistic contribution of a fungal α-glucosidase in Chinese Nong-flavor daqu” (Microbial Cell Factories, 2023).

Columns and labels:
[1] = system: T1, NFAg31A (also printed NFEg31A), product of ORF15963; experiment: HPAEC-PAD of released glucose, Michaelis-Menten fit; format: biochemical; conditions: pH 7.0, 45 ℃, 15 min, 0.25 µM enzyme
T1 construct: 960 aa ORF without 30 aa signal peptide (primer-derived start M-VKHENFKK, end REWRI), incl; C-terminal DUF5100; 6xHis kept, printed C-terminal (but reverse primer holds a stop, so probably N-terminal pET-28a tag); E. coli BL21(DE3)
Text: HPAEC-PAD of released glucose, Michaelis-Menten fit on NFAg31A (also printed NFEg31A), product of ORF15963

[2] = system: T1, NFAg31A (also printed NFEg31A), product of ORF15963; experiment: p-nitrophenol release at […] nm, Michaelis-Menten fit; format: biochemical; conditions: pH 7.0, 45 ℃, 15 min, 0.25 µM enzyme

| Km [1] | Km [2] | Structure (SMILES) |
| --- | --- | --- |
| 11.5 ± 0.7 mM |  | OC[C@H]1O[C@H](O[C@H]2[C@H](O)[C@@H](O)C(O)O[C@@H]2CO)[C@H](O)[C@@H](O)[C@@H]1O (stereo partly shown) [Maltose] |
| 3.9 ± 0.3 mM |  | OC[C@H]1O[C@H](O[C@H]2C(O)O[C@H](CO)[C@@H](O)[C@@H]2O)[C@H](O)[C@@H](O)[C@@H]1O (stereo partly shown) [Kojibiose] |
| 19.3 ± 2.5 mM |  | OC[C@H]1O[C@H](O[C@H]2[C@H](O)[C@@H](CO)OC(O)[C@@H]2O)[C@H](O)[C@@H](O)[C@@H]1O (stereo partly shown) [Nigerose] |
|  | 550 ± 60 µM | O=[N+]([O-])c1ccc(O[C@H]2O[C@H](CO)[C@@H](O)[C@H](O)[C@H]2O)cc1 [pNPαG, p-Nitrophenyl-α-D-glucopyranoside] |
